# Measurements taken from patent publication US5684140A, “Dyes for ink jet printing” (Ilford A.G., priority 1995, dated 1997).
# Assay: Water solubility of the dyes (excess dye heated at 50 °C in water, cooled to 20 °C, filtered, determined spectroscopically)
# Assay type: physicochemical
# Conditions: after heating at 50 °C for one hour
# Experimental: The solubilities of the dyes according to the invention were determined as follows:
# An excess of dye was heated at 50° C. in water with stirring for one hour. The mixture was then cooled down to 20 ° C. and filtered, and the dye content of the clear solution was determined spectroscopically.
row,solubility,SMILES
1,11 g per 100 ml,"CCN(c1nc(Cl)nc(Nc2ccc(N=Nc3cc4c(S(=O)(=O)O)cc(S(=O)(=O)O)cc4cc3S(=O)(=O)O)c(NC(N)=O)c2)n1)c1cc(S(=O)(=O)O)ccc1C [dye 1, reference compound]"
2,17 g per 100 ml,"CCN(c1nc(Cl)nc(Nc2cc(NC(C)=O)c(N=Nc3cc(S(=O)(=O)O)c4cccc(S(=O)(=O)O)c4c3)cc2OC)n1)c1cc(S(=O)(=O)O)ccc1C [dye 5, reference compound]"

# The next lines start with the compound.
row,SMILES,solubility
1,COc1cc(N=Nc2cc(S(=O)(=O)O)c3cccc(S(=O)(=O)O)c3c2)c(C)cc1Nc1nc(O)nc(NCCS(=O)(=O)O)n1 [Compound 100],31 g per 100 ml
2,COc1cc(N=Nc2cc(S(=O)(=O)O)c3cccc(S(=O)(=O)O)c3c2)c(C)cc1Nc1nc(NCCS(=O)(=O)O)nc(SCCO)n1 [Compound 101],40 g per 100 ml
3,COc1cc(N=Nc2cc(S(=O)(=O)O)c3cccc(S(=O)(=O)O)c3c2)c(C)cc1Nc1nc(NCCS(=O)(=O)O)nc(SCC(=O)O)n1 [Compound 102],54 g per 100 ml
